As usually defined, the EC50 is the concentration needed to bring the measured effect to its halfway point. Broadly, the IC50 is the point on the concentration scale where inhibition reaches its midpoint. For orientation: Ki means a dissociation constant, usually derived from enzyme kinetics or from competition with a known ligand. High values mean lower affinity, low ones higher affinity.

The test system of test [1] is MM1.S (multiple myeloma) cells. In words: In vitro cell proliferation, MM1.S (CELL TITER GLO). In kind it is cell-based. To be noted: Homo sapiens, 72 hours, read-out: Prolif MM1S ATP (EC50). The protocol: (§1) BaF3 parental line was obtained from the DSMZ repository. BaF3 lines transfected with PIM1 or PIM2 were generated. Mouse IL-3 was purchased from R&D Systems. G418 was purchased from Clontech. Media for BaF3 parental line contained RPMI, 10% FBS, 2 mM L-Glutamine, 2 ng/mL mIL-3. Media for BaF3 PIM1 & 2 lines contained RPMI, 10% FBS, 2 mM L-Glutamine, […]. Media for MM1.S (multiple myeloma cells) line contained RPMI, 10% FBS, 2 mM L-Glutamine.
(§2) BaF3, a murine interleukin-3 dependent pro-B cell line, parental cells, BaF3 PIM1 cells, BaF3 PIM2 cells, and MM1.S (multiple myeloma) cells were seeded at 2 k/well, 5 k/well, 5 k/well, and 10 k/well respectively, in a 384-well plate, at 45 μL/well. Test compound was added at 5 μL/well. BaF3 cells (parental and transfected) were incubated overnight, while MM1.S cells were incubated for 72 hours at 37° C., 5% CO2. CELL TITER GLO® Reagent (Promega) was added at 50 μL/well, the plates were incubated for 30 minutes, and their luminescence read on an HT Analyst. IC50/EC50 values for the test compound were calculated.
(In general: ATP-based viability assays read luminescence as a measure of living cells.)

For test [2], the system named is BaF3 PIM1 cells. In words: In vitro cell proliferation, BaF3 transfected with PIM1. In kind it is cell-based, murine. To be noted: Mus musculus; BaF3 PIM1 line, incubated overnight; read-out: Prolif BaF3 PIM1 (IC50). The protocol:
as §1, §2

For test [3], the system named is BaF3 parental cells. In words: In vitro cell proliferation, BaF3 parental line + IL3. Format: cell-based, murine. To be noted: Mus musculus; BaF3 parental line with mIL-3, incubated overnight; read-out: Prolif BaF3 + IL3 (IC50). The protocol: as §1, §2
In test [4] the target is PIM1 (Homo sapiens (Human), UniProt P11309). Description: Pim kinase binding activity (PIM1 LC3K Ki). In kind it is biochemical. To be noted: 20 pM PIM1, 10 μM ATP, 90 minutes. As for the experimental part:
PIM-1, -2, and -3 enzymes were generated as fusion proteins expressed in bacteria and purified by IMAC column chromatography (Sun, X., Chiu, J. F., and He, Q. Y. (2005) Expert Rev. Proteomics, 2:649-657). A fluorescent-labeled Pim-specific peptide substrate, was custom synthesized by American Peptide Company (Sunnyvale, Calif.). Reaction Buffer contained 10 mM HEPES, pH 7.2, 10 mM MgCl2, 0.01% Tween 20, 2 mM DTT. Termination Buffer contained 190 mM HEPES, pH 7.2, 0.015% Brij-35, 0.2% Coating Reagent 3 (Caliper Life Sciences, Hopkinton, Mass.), 20 mM EDTA. Separation Buffer contained 100 mM HEPES, pH 7.2, 0.015% Brij-35, 0.1% Coating Reagent 3, 1:200 Coating Reagent 8 (Caliper Life Sciences, Hopkinton, Mass.), 10 mM EDTA and 5% DMSO.
PIM reactions were carried out in a final volume of 10 μL per well in a 384-well plate. A standard enzymatic reaction, initiated by the addition of 5 μL 2×ATP and test compound to 5 μL of 2× enzyme and FAM-peptide, contained 20 pM PIM1, 50 pM PIM2, or 55 pM PIM3, 1 μM FAM-peptide, and 10 μM ATP, in Reaction Buffer. After 90 minutes of incubation at room temperature, the phosphorylation reaction was stopped by the addition of 10 μL Termination Buffer. The product and substrate in each independent reaction were separated on a 12-sipper microfluidic chip (Caliper Life Sciences, Hopkinton, Mass.) run on a Caliper LC3000® (Caliper Life Sciences, Hopkinton, Mass.). The separation of product and substrate was optimized by choosing voltages and pressure using Caliper's Optimizer software (Hopkinton, Mass.). The separation conditions used a downstream voltage of −500V, an upstream voltage of −2150V, and a screening pressure of −1.2 psi. The product and substrate fluorophore were excited at 488 nm and detected at 530 nm. Substrate conversion was calculated from the electropherogram using HTS Well Analyzer software (Caliper Life Sciences, Hopkinton, Mass.). Ki values for the test compound were calculated. See Table 1 for representative PIM1 LC3K Ki in micromolar values of exemplary compounds.

PIM1, sequence (P11309 whole entry, the tested form may be a part): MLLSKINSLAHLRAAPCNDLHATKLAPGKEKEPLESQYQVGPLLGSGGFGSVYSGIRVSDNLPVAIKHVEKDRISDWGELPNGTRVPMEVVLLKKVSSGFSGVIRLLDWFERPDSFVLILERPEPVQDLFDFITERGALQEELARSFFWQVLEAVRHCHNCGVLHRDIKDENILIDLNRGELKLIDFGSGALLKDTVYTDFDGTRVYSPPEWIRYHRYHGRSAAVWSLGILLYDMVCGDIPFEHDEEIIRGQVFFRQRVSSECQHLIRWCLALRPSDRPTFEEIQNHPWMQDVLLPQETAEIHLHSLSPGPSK

Regarding `Cn1ncc(NC(=O)c2csc(-c3cccc4cccnc34)n2)c1[C@@H]1CC[C@@H](N)[C@H](F)CO1` [Example 120, N-[5-[(2S,5R,6S)-5-amino-6-fluoro-oxepan-2-yl]-1-methyl-pyrazol-4-yl]-2-(8-quinolyl)thiazole-4-carboxamide], the EC50 in test [1] is 228 nM. Besides, the half-inhibitory concentration (IC50) in test [2] worked out at 563 nM; in test [3] it was 2300 nM. Moreover, the Ki in test [4] was found to be 1.79 nM.

For `C[C@@H]1O[C@H](c2c(NC(=O)c3csc(-c4c(F)cccc4F)n3)cnn2C)CC[C@@H](N)[C@H]1F` [Example 121, N-(5-((2S,5R,6R,7S)-5-amino-6-fluoro-7-methyloxepan-2-yl)-1-methyl-1H-pyrazol-4-yl)-2-(2,6-difluorophenyl)thiazole-4-carboxamide], in test [1], the EC50 is 376 nM. Besides, the figures for the IC50 in test [2] and in test [3] were 12.2 nM and 14200 nM, respectively. For the same molecule, the Ki in test [4] worked out at 0.0049 nM.

As to `Cn1ncc(NC(=O)c2csc(-c3cn4ccnc4cn3)n2)c1[C@@H]1CC[C@@H](N)[C@H](F)CO1` [Example 122, N-(5-((2S,5R,6S)-5-amino-6-fluorooxepan-2-yl)-1-methyl-1H-pyrazol-4-yl)-2-(imidazo[1,2-a]pyrazin-6-yl)thiazole-4-carboxamide], the EC50 in test [1] stood at 600 nM. The concentration for half-maximal inhibition (IC50) in test [2] was found to be 184 nM; in test [3] it was 12500 nM. In test [4], this molecule returned a Ki of 0.025 nM.
